The target in one series is T1, adenosine kinase (Bos taurus, UniProt A0AAA9RZ79).
T1 construct: endogenous in cells; host or cells: capillary endothelial cells from bovine heart
The experiment in a line: Adenosine kinase inhibition in intact cells (capillary endothelial cells from bovine heart). The class given is cell-based. The settings on record: 20 μM 2'-deoxycoformycin, 5 μM [3H]adenosine. The protocol: Inhibition of adenosine kinase in intact cells was determined from the amount of incorporation of radioisotope from adenosine into the adenylates (AMP, ADP and ATP) in the presence of adenosine deaminase inhibition. […] The media was then discarded and the cells were treated with 50 μl 0.4M perchloric acid, centrifuged and the supernalants neutralized with 100 μl alanine: freon (1:4).

For series [1], the system named is E. coli LPS endotoxemia. The experiment in a line: Survival in endotoxemia (E. coli LPS) in mice. In kind it is in vivo, Balb/C mice. The conditions noted are these: i.v. immediately after 900 ug LPS i.v.; p=0.015. An excerpt:
An adenosine kinase inhibitor (GP-1-515) was used to increase endogenous adenosine production in vivo.

For series [2], the system named is E. coli LPS endotoxemia. The series is described as follows: Prophylactic treatment for endotoxemia in mice. The class given is in vivo, Balb/C mice. The conditions noted are these: 5 mg/kg oral, 6 hours before 700 ug LPS i.v. The protocol: As shown in Example E, intravenous treatment with an adenosine kinase inhibitor improves survival of mice if administered immediately after intravenous injection with LPS. In the following experiments, it was shown that an adenosine kinase inhibitor (GP-1-515) protects animals against endotoxemia if administered prophylactically. In these experiments, 25-30 gram male Balb/C mice received oral GP-1-515 (5 mg/kg in water) or vehicle by gavage. Six hours later, the animals received an intravenous injection of 700 ug of E. coli LPS (Sigma Chemical Co.). In an experiment involving 10 animals per group, 50% of mice in the adenosine kinase inhibitor-treated group survived for 2 days, while none of animals in the vehicle treated group survived for that time period (data not shown).

Series [3] deals with bacterial peritonitis and septic shock. The series is described as follows: Cecal ligation and puncture, model of chronic sepsis. In kind it is in vivo, male CD rats. The conditions noted are these: 5 mg/kg orally, 2 hours before. How it is done:
Cecal ligation and puncture (CLP) is a model of bacterial peritonitis and septic shock which mimics systemic infections in humans. In these experiments, male CD rats were fasted overnight and treated orally with either GP-1-515 (5 mg/kg) or vehicle by gavage. Two hours later, animals were anesthetized with ether and the anterior abdominal wall was shaved. A midline incision was made and the cecum was exteriorized and ligated with 3-0 silk suture near the ilial-cecal junction without causing bowel obstruction. The cecum was punctured twice on the anti-mesenteric side using a yellow tip disposable pipette tip (Fisher, Tustin, Calif.) and squeezed to ensure patency. The cecum was placed back in the abdominal cavity and the peritoneal wall was closed with 5-0 nylon sutures. The skin was closed with 9 mm stainless steel wound clips. The animals were resuscitated with a subcutaneous injection of 2 mL of sterile saline. No antibiotics were administered.

The test system of another series is TNF-α. The series is described as follows: Inhibition of TNF-alpha production in endotoxemic mice (ELISA). The settings on record: 0.1 mg/kg i.v., one hour after LPS; p<0.01. The class given is in vivo, Balb/C mice. How it is done:
In these experiments, plasma TNF-α levels were measured in GP-1-515and placebo-treated mice (8 animals per group). Balb/C mice received an intravenous injection of E. coli LPS (900 ug/animal) (Sigma Chemical Co.) followed immediately by a second injection with 0.1 mg/kg of GP-1-515 or vehicle. Some animals were pretreated with an intraperitoneal injection of the adenosine receptor antagonist 8SPT. One hour later, blood was obtained from ether anesthetized animals by intracardiac puncture using a heparinized syringe. Blood samples were chilled on ice, centrifuged at 5000 rpm in a microcentrifuge for 5 minutes, and the plasma removed. TNF-α levels in the plasma were assayed by ELISA according to the instructions provided by the manufacturer (Endogen, Cambridge, Mass.).
(ELISA stands for enzyme-linked immunosorbent assay.)

Series [4] deals with E. Coli 0111:B4 lipopolysaccharide (LPS) endotoxic shock. The experiment in a line: Endotoxic shock in pigs. The class given is in vivo, Yucatan miniature pigs. How it is done:
Male or female Yucatan miniature pigs (20-27 kg) were pre-medicated with xylazine ([…] i.m.), ketamine (150 mg i.m.), and atropine (1 mg i.m.). The animals were intubated, administered 10 mg/kg of pentobarbital intravenously, and covered with a blanket to maintain normal body temperature. A pentobarbital infusion was maintained at 10 mg/kg/hr. The pigs were ventilated with 30% O2 using a Harvard large animal respirator at 7-10 breaths/rain in order to achieve a blood pH of approximately 7.45-7.50. A bolus of 4 mg of Pancuronium bromide was given to inhibit muscle contraction in response to the cautery and the animals were hydrated with a continuous infusion of saline at 60-80 cc/hr. A left thoracotomy was performed in the third intercostal space and the pulmonary artery, carotid artery, external jugular vein were cannulated with PE-190 tubing. A line was also placed in the left atrium and a catheter tipped micromanometer was inserted into the left ventricle via an apical stab wound. A transit-time flow probe was placed on the pulmonary artery. Pressure readings were obtained using a Statham pressure transducer connected to a Gould strip chart recorder. Heparinized arterial blood samples for blood gases were obtained through the carotid arterial catheter. Drugs and endotoxin were infused through the external jugular catheter.
After the animals had stabilized, a continuous infusion of GP-1-515 (0.3 μg/kg/m in) was started, followed 30 min later by a slow infusion of E. Coli 0111:B4 lipopolysaccharide (LPS) (Sigma Chemical Co., St. Louis, Mo.) over 30 min. The animals continued to receive GP-1-515 or vehicle for 4 additional hours and were ventilated with a fixed tidal volume and FiO2. […] Control animals developed severe hypoxemia, hypercapnia, and acidosis. […] 4/7pigs in the control group died (several of whom had frank pulmonary edema) compared to 1/7in the GP-1-515-treated group. Upon completion of the study, the surviving animals were euthanized with an intravenous bolus of pentobarbital.

In the next series the test system is bacterial translocation. The series is described as follows: Burn model, bacterial translocation to mesenteric lymph nodes. In kind it is in vivo, Female CF-1 mice. How it is done: Female CF-1, non-Swiss, non-albino mice (age 8-12 weeks) (Charles River Laboratory, Wilmington, Mass.) were anesthetized with a 1-2 minute exposure to methoxyflurane (Abbott Labs, Chicago, Ill.). The shaved dorsum was burned by a 6-second exposure to steam using a 3.5×5.5 cm template to produce a 32% total body surface area full thickness burn. Animals were resuscitated with 1 mL of normal saline i.p., followed by 0.1 mg/kg i.p./injection of GP-1-515 or an equal amount of vehicle. Animals also received an i.p. injection of morphine sulfate (15 mg/kg). The animals were administered a second injection of GP-1-515 (0.1 mg/kg) or vehicle i.p. 6 hours after the burn. Animals were fasted for 4 hours before the burn and for 24 hours thereafter. After 48 hours, the animals were sacrificed by cervical dislocation and the abdomen was opened using aseptic techniques. Mesenteric lymph nodes were harvested and weighed in sterile bags, homogenized in Trypticate Soy Broth (BBL, Becton Dickinson Microbiology System, Cockeysville, Md.). Ser. dilutions of the homogenate were plated on […] plates (BBL, Becton Dickinson) at 37° C. and the presence or absence of bacterial colonies was determined 48 hours later. In experiments involving approximately 120 animals, 52% of control mice had positive mesenteric lymph node cultures compared to 32% of GP-1-515-treated mice (p<0.05).

Series [5] relates to tumor necrosis factor alpha. The conditions noted are these: cited from earlier work.
A further series has as its system heart. The conditions noted are these: in vivo; cited from earlier work.
The test system of series [6] is plasma leakage in rat skin. The experiment in a line: Suppression of vascular (plasma) leakage in rat skin, Evans' Blue. In kind it is in vivo, Male SA rats. The settings on record: for inhibition at 5 mg/kg: Rattus norvegicus, po, 5 mg/kg p.o. 1 hr prior. The protocol:
Leakage of plasma into inflamed skin was measured using Evans' Blue (Sigma Chemical Co., St. Louis, Mo.), which binds irreversibly to albumin. Evans' Blue and bovine serum albumin (Sigma) were mixed (20 and 40 mg/mL PBS, respectively) and incubated for 15 min at room temperature in order to form a conjugate. The mixture was then filtered through a 0.45 μm pore syringe filter and immediately used. […] The rats were then briefly anesthetized with halothane and dorsal skin injection sites (up to 4/rat) were stamped with a 12 mm test tube inked with a felt pad. Every site received 100 μl of an inflammatory agent or PBS injected intradermally into the middle of the circular mark. Inflammatory agents included carrageenan (1%) and histamine (10^-3 M) (Sigma). Rats were then returned to their cages. Two hrs later, animals were again anesthetized and 0.5 mL blood was obtained through orbital plexus bleed. Following sacrifice of the rats, the injection sites were excised along the marked lines, and subcutaneous muscle and fat layers were removed from the skin biopsies. Each skin biopsy was weighed and cut in four, and its Evans' Blue content was extracted overnight by incubation in 1 mL N,N-dimethylformamide (Aldrich, Milwaukee, Wis.). The absorbance at 650 nm of plasma samples and skin extracts was read in a plate reader, and the plasma content of each skin piece was calculated and expressed as μl plasma/g tissue.

Series [7] in a line: Oral bioavailability (statement). The settings on record: pro-drug of GP-1-515. The class given is in vivo.
Series [8] has as its system perfusate adenosine, isolated rat hearts. The conditions noted are these: normoxic, hypoxic, anoxic or ischemic conditions; alone; cited from earlier work.
In series [9] the test system is adenosine uptake, rat brain slices. The conditions noted are these: cited from earlier work.
Series [10] has as its system adenosine uptake, guinea pig brain slices. The settings on record: cited from earlier work.
Series [11] deals with dog hearts subjected to ischemia and reperfusion. The settings on record: in vivo; cited from earlier work.
For series [12] the following is noted: mouse, in vivo; cited from earlier work.
The conditions of series [13]: cited from earlier work.

Entries after “also recorded” stand apart in the source; their conditions may differ. Read-outs that look alike come from different tables or passages of the source.

T1 sequence (A0AAA9RZ79 1-362): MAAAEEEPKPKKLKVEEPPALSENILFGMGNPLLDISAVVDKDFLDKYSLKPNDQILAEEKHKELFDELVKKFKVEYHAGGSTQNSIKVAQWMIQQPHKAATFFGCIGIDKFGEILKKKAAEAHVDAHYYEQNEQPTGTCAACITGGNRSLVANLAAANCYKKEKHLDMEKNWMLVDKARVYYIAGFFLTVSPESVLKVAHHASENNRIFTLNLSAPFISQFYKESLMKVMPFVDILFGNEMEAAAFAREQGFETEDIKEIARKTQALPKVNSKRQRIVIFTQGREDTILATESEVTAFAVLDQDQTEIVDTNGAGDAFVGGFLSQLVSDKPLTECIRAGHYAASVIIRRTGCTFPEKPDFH

For the compound `NC[C@H]1O[C@@H](n2nc(Br)c3c(N)ncnc32)[C@H](O)[C@@H]1O` [GP-1-515], on adenosine kinase, the midpoint of inhibition, the IC50, lay at 9 nM. For the same compound, the “survival in endotoxic shock” value with E. coli LPS endotoxemia [1] is recorded as “dose-dependent increase in survival; also recorded: protecting against endotoxic shock”. Further, the “mice surviving for 2 days” value with E. coli LPS endotoxemia [2] is recorded as 50%. Besides, the “survival after cecal ligation and puncture” value in [3] is reported as “improved survival”. Further, in the series with TNF-α, the “plasma TNF-α levels” value is listed as “significantly decreased plasma TNF-α levels”. Further, the “gas exchange, pulmonary function, blood gases” value in [4] (0.3 μg/kg/min infusion) was “marked protection; also recorded: minimal changes in blood gases; also recorded: did not develop the hypoxemia, hypercapnia and acidosis exhibited in the control animals”. Moreover, in [4] (control 4/7), the pigs died is on record as 1/7. Besides, in series [4] (versus control), the blood pressure result was “Blood pressures were similar in the treated and control groups”; the heart rate entry is given as “the control group,, required a significantly higher heart rate; also recorded: lower heart rates than control animals”. The “other hemodynamic parameters, including pulmonary flow and pulmonary vascular resistance” value in [4] (versus untreated) is given as “either not different or modestly improved”. Moreover, in the series with bacterial translocation (0.1 mg/kg i.p. twice, 48 hours, control 52%, p<0.05), the “mice with positive mesenteric lymph node cultures” value came to 32%. Also, the “bacterial translocation” value with bacterial translocation (after a severe burn (or pancreatitis)) was “significantly decreased; also recorded: significantly reduce bacterial translocation”.
On to `Nc1ncnc2c1ncn2[C@@H]1O[C@H](CO)[C@@H](O)[C@H]1O` [Adenosine, adenosine], for which the “in vitro production of tumor necrosis factor alpha” value in series [5] is “inhibit in vitro production”. For the same compound, in the series with heart, the coronary steal entry is on record as “cause coronary steal”; the “inotropic, chronotropic and dromotropic effects” value is “negative inotropic, chronotropic and dromotropic effects”.
As for `CC(=O)O[C@@H]1[C@H](OC(C)=O)[C@@H](CN)O[C@H]1n1nc(Br)c2c(N)ncnc21` [GP-1-792, 4-amino-1-(5-amino-5-deoxy-2,3-di-O-acetyl-1-β-D-ribofuranosyl)-3-bromopyrazolo[3,4-d]pyrimidine], the “suppression of carrageenan and histamine induced plasma leakage” value in series [6] (FIG. 13 legend) is “suppression of carrageenan and histamine induced plasma leakage”. The inhibition – broadly, the percentage by which the read-out fell short of the control – at 5 mg/kg in series [6] (carrageenan (1%), read-out: inhibition of carrageenan-induced plasma leakage) was 47 ± 5%; in [6] (histamine (10^-3 M), read-out: inhibition of histamine-induced plasma leakage), 51 ± 5%. The “oral bioavailability” value in series [7] is “orally bioavailable”.
Turning to `Nc1ncnc2c1c(I)cn2[C@@H]1O[C@H](CO)[C@@H](O)[C@H]1O` [GP-1-202, 5-iodotubercidin, reference compound], in [8], the “perfusate adenosine concentration, isolated rat hearts” value is “no increase in perfusate adenosine concentration”. The “adenosine uptake, rat brain slices” value in series [9] was “inhibited”. The “adenosine uptake, guinea pig brain slices” value in series [10] was “inhibited”. In addition, the “effects in dog hearts, ischemia and reperfusion” value in series [11] is recorded as “inconsistent effects”. In [12], the “body temperature in mice” value is “hypothermia”; the “flaccidity and locomotor activity in mice” value was “pronounced general flaccidity and much-reduced spontaneous locomotor activity”. Also, the “blood pressure and heart rate in anesthetized rats” value in series [13] is “decrease blood pressure and heart rate”.

(Values after US5646128A, “Methods for treating adenosine kinase related conditions” (priority 1994, dated 1997).)
